The species named for one data set is Rattus norvegicus. Put plainly: Unbound clearance in rat. Format: ADME, organism-based. To be noted: in vivo.
In data set [1] the target is Voltage-gated inwardly rectifying potassium channel KCNH2 (Homo sapiens, UniProt Q12809). In words: Inhibition of human ERG.
A short description of data set [2]: Clearance in rat. Format: ADME, organism-based. To be noted: in vivo.
The nature of data set [3]: Lipophilicity, log D of the compound. Format: physicochemical. To be noted: octanol/water.
The target of a further data set is T1, Hexokinase-4 (Homo sapiens, UniProt P35557).
T1 sequence (P35557 whole entry): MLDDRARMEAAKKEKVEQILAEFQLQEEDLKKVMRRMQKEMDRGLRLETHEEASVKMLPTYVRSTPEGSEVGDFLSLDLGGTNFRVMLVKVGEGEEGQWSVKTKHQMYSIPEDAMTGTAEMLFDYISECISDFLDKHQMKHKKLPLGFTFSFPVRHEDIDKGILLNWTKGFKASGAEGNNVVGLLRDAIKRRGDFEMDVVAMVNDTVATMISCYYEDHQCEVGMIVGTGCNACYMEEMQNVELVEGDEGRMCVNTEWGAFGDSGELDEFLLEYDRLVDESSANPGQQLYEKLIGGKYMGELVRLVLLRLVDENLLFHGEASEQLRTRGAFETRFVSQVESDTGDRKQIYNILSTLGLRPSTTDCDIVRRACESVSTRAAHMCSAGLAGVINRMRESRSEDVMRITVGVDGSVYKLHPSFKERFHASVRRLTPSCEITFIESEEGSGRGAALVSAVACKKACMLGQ
Put plainly: Activity at glucokinase (unknown origin).

Broadly, the IC50 is the concentration needed to halve the response being measured. A low value points to greater potency in that assay. For orientation: clearance means the rate of elimination divided by the concentration. One may read the logD as the decadic logarithm of the distribution of all forms, ionised or not, between an organic phase and buffer at a given pH. Low readings indicate lower lipophilicity, high ones higher lipophilicity. By EC50 is commonly meant the concentration at which the effect is half-maximal. Higher therefore signals a less potent agent.

Chain of Voltage-gated inwardly rectifying potassium channel KCNH2 (Q12809 whole entry): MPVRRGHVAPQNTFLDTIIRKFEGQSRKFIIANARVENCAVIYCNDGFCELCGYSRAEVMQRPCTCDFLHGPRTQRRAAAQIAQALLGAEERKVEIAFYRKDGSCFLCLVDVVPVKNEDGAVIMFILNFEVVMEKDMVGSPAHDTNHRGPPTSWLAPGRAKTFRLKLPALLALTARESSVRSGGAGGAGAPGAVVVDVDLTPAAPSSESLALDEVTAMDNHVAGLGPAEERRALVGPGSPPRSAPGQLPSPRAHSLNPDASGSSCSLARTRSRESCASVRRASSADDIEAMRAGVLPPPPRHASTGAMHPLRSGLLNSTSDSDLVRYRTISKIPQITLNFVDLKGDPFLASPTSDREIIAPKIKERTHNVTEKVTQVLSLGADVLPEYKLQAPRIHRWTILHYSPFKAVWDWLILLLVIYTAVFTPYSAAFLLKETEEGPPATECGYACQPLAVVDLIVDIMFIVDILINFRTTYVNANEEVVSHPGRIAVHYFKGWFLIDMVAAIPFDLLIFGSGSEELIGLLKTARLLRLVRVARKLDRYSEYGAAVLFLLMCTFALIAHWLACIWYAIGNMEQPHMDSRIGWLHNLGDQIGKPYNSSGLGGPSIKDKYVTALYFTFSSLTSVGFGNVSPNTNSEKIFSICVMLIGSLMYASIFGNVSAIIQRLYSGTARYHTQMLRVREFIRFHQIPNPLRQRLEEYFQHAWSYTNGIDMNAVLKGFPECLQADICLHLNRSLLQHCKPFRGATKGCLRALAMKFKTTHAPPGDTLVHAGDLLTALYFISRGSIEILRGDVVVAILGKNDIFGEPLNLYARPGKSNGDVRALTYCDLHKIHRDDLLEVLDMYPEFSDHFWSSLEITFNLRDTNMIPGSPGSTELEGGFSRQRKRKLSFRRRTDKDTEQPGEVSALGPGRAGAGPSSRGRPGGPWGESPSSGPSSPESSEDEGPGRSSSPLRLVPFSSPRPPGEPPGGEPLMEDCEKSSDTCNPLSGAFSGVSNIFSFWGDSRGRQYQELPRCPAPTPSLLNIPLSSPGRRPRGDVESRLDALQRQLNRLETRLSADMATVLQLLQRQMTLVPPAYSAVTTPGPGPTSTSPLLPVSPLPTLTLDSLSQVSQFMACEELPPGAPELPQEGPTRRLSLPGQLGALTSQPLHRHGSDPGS

For the molecule `COCC[C@H](Oc1ncnc2c1cnn2-c1ccccc1Cl)C(=O)Nc1ccc(C)cn1`, the CL free in the data set filed under Rattus norvegicus was 500 mL/min/kg. The molecule further showed a concentration for half-maximal inhibition (IC50) in data set [1] of 20000 nM. In data set [2], this molecule came in with a clearance of 37 mL/min/kg. This molecule also showed a pH-dependent lipophilicity (logD) in data set [3] of 3.6.

In the case of `Cc1cnc(NC(=O)[C@H](COC(C)C)Oc2ncnc3c2cnn3-c2ccccc2Cl)cn1`, the CL free in the data set listed under Rattus norvegicus came to 130 mL/min/kg. This molecule also gave an IC50 in data set [1] of over 100000 nM. This molecule gave a clearance in data set [2] of 61 mL/min/kg. The same molecule had an EC50 at Hexokinase-4 of 316 nM. In data set [3], this molecule showed a pH-dependent lipophilicity (logD) of 2.1.

In the data set listed under Rattus norvegicus, `COCC[C@H](Oc1ncnc2c1cnn2-c1ncccc1Cl)C(=O)Nc1ccc(C)cn1` registered a CL free of 280 mL/min/kg. Further, the clearance in data set [2] was determined as 54 mL/min/kg. This molecule showed an EC50 on Hexokinase-4 of 158 nM. In addition, in data set [3], the logD came to 2.3.

In data set [1], `COC[C@H](Oc1ncnc2c1cnn2-c1ccccc1Cl)C(=O)Nc1ccc(C)cn1` had an IC50 of 50100 nM. The molecule further displayed a clearance in data set [2] of 3.8 mL/min/kg. In addition, on Hexokinase-4, the EC50 was 316 nM. This molecule also came in with a logD in data set [3] of 3.4.

For `COC[C@H](Oc1ncnc2c1cnn2-c1ncccc1Cl)C(=O)Nc1ccc(C)cn1`, in data set [1], the IC50 was over 100000 nM. The clearance in data set [2] turned out to be 9.3 mL/min/kg. The molecule also gave an EC50 at Hexokinase-4 of 1580 nM. Besides, in data set [3], the logD is 2.3.

For `COC[C@H](Oc1ncnc2c1cnn2-c1ncccc1Cl)C(=O)Nc1cnc(C)cn1`, the IC50 in data set [1] was over 79400 nM. The same molecule had a clearance in data set [2] of 4 mL/min/kg. For the same molecule, the EC50 on Hexokinase-4 is 5010 nM. Further, in data set [3], the logD was found to be 1.4.

`CCOC[C@H](Oc1ncnc2c1cnn2-c1ncccc1Cl)C(=O)Nc1ccc(C)cn1`: in the data set filed under Rattus norvegicus, the CL free came out at 340 mL/min/kg. For the same molecule, the clearance in data set [2] was found to be 52 mL/min/kg. The same molecule showed an EC50 on Hexokinase-4 of 251 nM. In addition, the logD in data set [3] came to 2.6.

Take `CCOC[C@H](Oc1ncnc2c1cnn2-c1ccccc1Cl)C(=O)Nc1cnc(C)cn1`: the CL free in the data set filed under Rattus norvegicus amounted to 150 mL/min/kg. The clearance in data set [2] was determined as 44 mL/min/kg. Moreover, the logD in data set [3] was 2.8.

In the data set filed under Rattus norvegicus, `CCOC[C@H](Oc1ncnc2c1cnn2-c1ncccc1Cl)C(=O)Nc1cnc(C)cn1` gave a CL free of 320 mL/min/kg. This molecule had a half-maximal inhibitory concentration (IC50) in data set [1] of 15800 nM. The same molecule gave a clearance in data set [2] of 50 mL/min/kg. Also, on Hexokinase-4, it took 1260 nM to reach a half-maximal effect (EC50). Further, the logD in data set [3] was 1.8.

For `Cc1ccc(NC(=O)[C@H](COC(C)C)Oc2ncnc3c2cnn3-c2ccccc2Cl)nc1`, the CL free in the data set listed under Rattus norvegicus turned out to be 1400 mL/min/kg. In data set [1], this molecule had an IC50 of 31600 nM. The molecule further returned a clearance in data set [2] of 71 mL/min/kg. This molecule gave an EC50 at Hexokinase-4 of 126 nM. In data set [3], this molecule came in with a logD of 3.9.

`Cc1ccc(NC(=O)[C@H](COC(C)C)Oc2ncnc3c2cnn3-c2ncccc2Cl)nc1` had a CL free in the data set listed under Rattus norvegicus of 390 mL/min/kg. The molecule also showed an IC50 in data set [1] of over 100000 nM. Also, in data set [2], the clearance was determined as 62 mL/min/kg. Besides, the logD in data set [3] was found to be 2.9.

`Cc1ccc(NC(=O)[C@H](COC2CCC2)Oc2ncnc3c2cnn3-c2ncccc2Cl)nc1` yielded a CL free in the data set filed under Rattus norvegicus of 1500 mL/min/kg. The molecule further gave an IC50 in data set [1] of 39800 nM. In data set [2], the clearance turned out to be 136 mL/min/kg. At Hexokinase-4, the EC50 is 158 nM. Also, the log distribution coefficient (logD) in data set [3] stood at 3.2.

`Cc1cnc(NC(=O)[C@H](COC2CCC2)Oc2ncnc3c2cnn3-c2ccccc2Cl)cn1` came in with a CL free in the data set filed under Rattus norvegicus of 650 mL/min/kg. For the same molecule, the IC50 in data set [1] is 12600 nM. In data set [2], this molecule had a clearance of 42 mL/min/kg. The midpoint of the response on Hexokinase-4, the EC50, lay at 79.4 nM. In data set [3], this molecule yielded a logD of 3.6.

For the molecule `Cc1cnc(NC(=O)[C@H](COC2CCC2)Oc2ncnc3c2cnn3-c2ncccc2Cl)cn1`, in the data set filed under Rattus norvegicus, the CL free amounted to 260 mL/min/kg. In addition, the clearance in data set [2] turned out to be 22 mL/min/kg. In addition, the EC50 at Hexokinase-4 is 158 nM. Also, the logD in data set [3] came out at 2.6.

In data set [1], `CC(C)OC[C@H](Oc1ncnc2c1cnn2-c1ncccc1Cl)C(=O)Nc1ccc(Cl)cn1` showed an IC50 of 63100 nM. This molecule had a half-maximal effective concentration (EC50) at Hexokinase-4 of 398 nM. The logD in data set [3] amounted to 3.5.

The molecule `CC(C)OC[C@H](Oc1ncnc2c1cnn2-c1ccccc1Cl)C(=O)Nc1ccc(Cl)cn1` gave an EC50 on Hexokinase-4 of 126 nM.

Molecule `CCOC[C@H](Oc1ncnc2c1cnn2-c1ncccc1Cl)C(=O)Nc1ccc(Cl)cn1` had an IC50 in data set [1] of 10000 nM. The molecule also gave an EC50 at Hexokinase-4 of 316 nM. Further, the logD in data set [3] turned out to be 3.

On to `CC(C)OC[C@H](Oc1ncnc2c1cnn2-c1ncccc1Cl)C(=O)Nc1ccc(F)cn1`, for which the half-maximal inhibitory concentration (IC50) in data set [1] is 79400 nM. The molecule also registered a logD in data set [3] of 2.7.

`CC(C)OC[C@H](Oc1ncnc2c1cnn2-c1ccccc1Cl)C(=O)Nc1ccc(F)cn1`: the EC50 at Hexokinase-4 is 200 nM. This molecule showed a logD in data set [3] of 3.9.

Turning to `CCOC[C@H](Oc1ncnc2c1cnn2-c1ncccc1Cl)C(=O)Nc1ccc(F)cn1`, in data set [3], the logD turned out to be 2.4.

`CC(C)OC[C@H](Oc1ncnc2c1cnn2-c1ncccc1Cl)C(=O)Nc1ccccn1` had an IC50 in data set [1] of over 100000 nM. The molecule further gave an EC50 on Hexokinase-4 of 501 nM. The molecule also yielded a logD in data set [3] of 2.5.

The molecule `CC(C)OC[C@H](Oc1ncnc2c1cnn2-c1ccccc1Cl)C(=O)Nc1ccccn1` had an IC50 in data set [1] of 63100 nM. Moreover, the EC50 at Hexokinase-4 was 126 nM. The molecule also gave a logD in data set [3] of 3.5.

On to `CCOC[C@H](Oc1ncnc2c1cnn2-c1ncccc1Cl)C(=O)Nc1ccccn1`, for which the 50% inhibitory concentration (IC50) in data set [1] was over 100000 nM. At Hexokinase-4, this molecule had an EC50 of 501 nM. In data set [3], the logD is 2.1.

`CC(C)OC[C@H](Oc1ncnc2c1cnn2-c1ncccc1Cl)C(=O)Nc1ccc(C#N)cn1` gave an IC50 in data set [1] of 50100 nM. Moreover, the EC50 at Hexokinase-4 is 631 nM. In addition, the logD in data set [3] came out at 2.5.

At Hexokinase-4, `CC(C)OC[C@H](Oc1ncnc2c1cnn2-c1ccccc1Cl)C(=O)Nc1ccc(C#N)cn1` gave an EC50 of 316 nM. Further, the logD in data set [3] turned out to be 3.5.

As for `CCOC[C@H](Oc1ncnc2c1cnn2-c1ncccc1Cl)C(=O)Nc1ccc(C#N)cn1`, the IC50 in data set [1] is 20000 nM. Moreover, the EC50 on Hexokinase-4 is 631 nM. In addition, the logD in data set [3] was determined as 2.

These data come from ChEMBL document CHEMBL3217683, “Matched triplicate design sets in the optimisation of glucokinase activators maximising medicinal chemistry information content” (Medchemcomm, 2013).
